System: human KRAS G12D mutant-positive PK-59 pancreatic cancer cell line-derived xenograft
Test: Test Example 4: anti-tumor activity in PK-59 xenograft mice
Assay type: in vivo
Details: PK-59 xenograft nude mice, 10 mg/kg into tail vein, twice with an interval of once a week
Procedure: Test Example 4: Evaluation of Anti-Tumor Activity in Human KRAS G12D Mutant-Positive PK-59 Pancreatic Cancer Cell Line-Derived Xenograft Mice
PK-59 cells (RTKEN BRC, RCB 1901) were cultured using a RPMI 1640 medium containing 10% fetal bovine serum in the presence of 5% CO2 at 37° C. The PK-59 cells were collected and suspended in PBS, and after adding an equal amount of Matrigel (from Becton, Dickinson and Company), the cell suspension prepared at 1.0×10^7 to 2.0×10^7 cells/mL was subcutaneously inoculated in a volume of 100 μL in 4- to 6-week-old male nude mice (CAnN.Cg-Foxn1^nu/CrlCrlj (nu/nu), from Charles River Laboratories Japan). About two weeks after the inoculation, the mice were divided into groups so that all the groups had approximately the same tumor volume and body weight, and administration of test compounds was started on the next day. The study was conducted for 5 mice each of a vehicle group and test compound administration groups. The compounds of Example 8, Example 48 and Example 70 were dissolved in a solvent containing ethanol (from FUJIFILM Wako Pure Chemical Corporation), a 5% glucose solution (from Otsuka Pharmaceutical), 1M hydrochloric acid (from Kanto Chemical Co., Inc.), an aqueous 50% (2-hydroxypropyl)-β-cyclodextrin (HP-βCD) solution (from ROQUETTE), HCO-40 (from Nikko Chemicals Co., Ltd.) and an aqueous 1M sodium hydroxide solution (from Kanto Chemical Co., Inc.) at a liquid amount ratio of 4:84.4:1.1:1:9:0.5. The compounds of Example 22 and Example 26 were dissolved in a solvent containing propylene glycol (from FUJIFILM Wako Pure Chemical Corporation), Tween80 (from Nacalai Tesque) and Otsuka normal saline (from Otsuka Pharmaceutical) at a liquid amount ratio of 6.7:3.3:90. The compound of Example 39 was dissolved in a solvent containing propylene glycol, ethanol, an aqueous 50% HP-PCD solution, HCO-40 and a 5% glucose solution at a liquid amount ratio of 10:8:10:10:62. The test compounds dissolved in the respective solvents or the solvents were administered into tail vein. The administration was performed twice with an interval of once a week. The tumor sizes and the body weights were measured twice a week. The tumor volumes were calculated using the following equation.
[Tumor volume (mm^3)]=[Major axis of tumor (mm)]×[Minor axis of tumor (mm)]^2×0.5
The tumor growth inhibitions (%) by the test compounds were calculated with the tumor volumes of the test compound administration groups on the previous day of the start of the administration taken as 100% inhibition and the tumor volumes of the vehicle groups two weeks after the initial administration taken as 0% inhibition. In addition, when the tumor volume of a test compound administration group was smaller than the tumor volume on the previous day of the start of the administration, the tumor regression (%) by the test compound was calculated with the tumor volume on the previous day of the start of the administration taken as 0% regression and with the tumor volume 0 taken as 100% regression. The molecular weights of the test compounds were calculated as the molecular weights of the dihydrochloride for Example No. 22 and the free forms forming no salt for the remaining Example Nos. The results for some test compounds of the formula (I) are shown in Table 5.

Row | Structure (SMILES) | Anti-Tumor Activity Two Weeks After Initial Administration (tumor growth inhibition) | Anti-Tumor Activity Two Weeks After Initial Administration (tumor regression)
1 | Cc1c(F)cc2[nH]ncc2c1-c1c(C2CC2)cc2c(N3C[C@@H]4C[C@H]3CN4)nc(OC3CCOCC3)nc2c1OCc1ccc(-c2cn([C@H](C(=O)N3C[C@H](O)C[C@H]3C(=O)N[C@@H](CO)c3ccc(-c4ccnn4C)cc3)C(C)C)nn2)cc1 [Example 22] | 93% inhibition | –
2 | CO[C@H](C)[C@@H](C)Oc1nc(N2C[C@@H]3C[C@H]2CN3)c2cc(C3CC3)c(-c3c(C)c(F)cc4[nH]ncc34)c(OCc3ccc(-c4cn([C@H](C(=O)N5C[C@H](O)C[C@H]5C(=O)N[C@@H](CO)c5ccc(-c6scnc6C)cc5)C(C)C)nn4)cc3)c2n1 [Example 39] | – | 13% regression
3 | Cc1ncsc1-c1ccc([C@H](CO)NC(=O)[C@@H]2C[C@@H](O)CN2C(=O)[C@H](C(C)C)n2cc(-c3ccc(COc4c(-c5c(C)c(F)cc6[nH]ncc56)c(C5CC5)cc5c(N6C[C@@H]7C[C@H]6CN7)nc(OC6CCOCC6)nc45)cc3)nn2)cc1 [Example 8, (4R)-1-[(2S)-2-(4-{4-[({6-cyclopropyl-4-[(1S,4S)-2,5-diazabicyclo[2.2.1]heptan-2-yl]-7-(6-fluoro-5-methyl-1H-indazol-4-yl)-2-[(oxan-4-yl)oxy]quinazolin-8-yl}oxy)methyl]phenyl}-1H-1,2,3-triazol-1-yl)-3-methylbutanoyl]-4-hydroxy-N-{(1R)-2-hydroxy-1-[4-(4-methyl-1,3-thiazol-5-yl)phenyl]ethyl}-L-prolinamide] | 98% inhibition | –
4 | CO[C@@H](C)COc1nc(N2C[C@@H]3C[C@H]2CN3)c2cc(C3CC3)c(-c3c(C)c(F)cc4[nH]ncc34)c(OCc3ccc(-c4cn([C@H](C(=O)N5C[C@H](O)C[C@H]5C(=O)N[C@@H](CO)c5ccc(-c6scnc6C)cc5)C(C)C)nn4)cc3)c2n1 [Example 48] | – | 32% regression
5 | CCn1nccc1-c1ccc([C@H](CO)NC(=O)[C@@H]2C[C@@H](O)CN2C(=O)[C@H](C(C)C)n2cc(-c3ccc(COc4c(-c5c(C)c(F)cc6[nH]ncc56)c(C5CC5)cc5c(N6C[C@@H]7C[C@H]6CN7)nc(OC6CCOCC6)nc45)cc3)nn2)cc1 [Example 26] | 94% inhibition | –
6 | CCn1nccc1-c1ccc([C@H](CO)NC(=O)[C@@H]2C[C@@H](O)CN2C(=O)[C@H](C(C)C)n2cc(-c3ccc(COc4c(-c5c(C)c(F)cc6[nH]ncc56)c(C5CC5)cc5c(N6C[C@@H]7C[C@H]6CN7)nc(OC[C@H](C)OC)nc45)cc3)nn2)cc1 [Example 70] | – | 42% regression
